Values quoted from earlier work in patent publication US9089636B2, “Methods and devices for delivering GLP-1 and uses thereof” (VALERITAS, INC., priority 2004, dated 2015).
Read-outs that look alike come from different tables or passages of the source. No end group written: not given here.

Assays:
[1] = test system: rat PC12 pheochromocytoma cell line
rats [2] = conditions: for blood pressure and heart rate: centrally and peripherally administered
cloned GLP-1 receptor = cloned GLP-1 receptor (Homo sapiens, UniProt P43220)
[3] = test system: Multiple islet cell lines
human islets = conditions: 5 days
Zucker diabetic rats = conditions: 2 day infusion
[4] = test system: BHK fibroblasts expressing a transfected GLP-1 receptor
[5] = test system: cultured fetal rat hippocampal neurons; conditions: for extent of glutamate-induced cell death: short term cultures
fetal pig islet clusters = conditions: 75-90 day gestational age
lean mice = conditions: subcutaneous, 2 days
young and old rats = conditions: infusion for 5 days
neonatal GK rat = conditions: 5 days
rats [6] = conditions: ICV
rats [7] = conditions: for effect on GLP-1-induced fecal output: rat, in vivo
human subjects [8] = conditions: physiologically relevant concentrations
[9] = test system: subjects with type 2 diabetes; conditions: following a liquid test meal
[10] = test system: human subjects with LV dysfunction and acute MI
salt-sensitive rats = conditions: 14 day treatment, high salt diet
human volunteers = conditions: 60 minute infusion, 30 pmol/kg/h
cultured myotubes = conditions: 0.1-1 pM
[11] = molecular target: dipeptidylaminopeptidase IV (DPP-IV) (Homo sapiens, UniProt P27487)
[12] = in vivo
CNS = conditions: in vivo
hippocampal neurons = conditions: systemic administration
human subjects [13] = conditions: infusion
db/db mice [14] = conditions: daily for 14 days
purified rat b cells = conditions: combination of cytotoxic cytokines
[15] = test system: human islet-like cell clusters; conditions: 4 days in vitro
rat pancreatectomy model = conditions: in vivo
db/db mice [16] = test system: db/db mice
blood brain barrier = conditions: CD1 mice
[17] = after 72-hour infusion at 1.5 pmol/kg per minute
[18] = after reperfusion, before GLP-1 infusion

cloned GLP-1 receptor, sequence (P43220 24-463): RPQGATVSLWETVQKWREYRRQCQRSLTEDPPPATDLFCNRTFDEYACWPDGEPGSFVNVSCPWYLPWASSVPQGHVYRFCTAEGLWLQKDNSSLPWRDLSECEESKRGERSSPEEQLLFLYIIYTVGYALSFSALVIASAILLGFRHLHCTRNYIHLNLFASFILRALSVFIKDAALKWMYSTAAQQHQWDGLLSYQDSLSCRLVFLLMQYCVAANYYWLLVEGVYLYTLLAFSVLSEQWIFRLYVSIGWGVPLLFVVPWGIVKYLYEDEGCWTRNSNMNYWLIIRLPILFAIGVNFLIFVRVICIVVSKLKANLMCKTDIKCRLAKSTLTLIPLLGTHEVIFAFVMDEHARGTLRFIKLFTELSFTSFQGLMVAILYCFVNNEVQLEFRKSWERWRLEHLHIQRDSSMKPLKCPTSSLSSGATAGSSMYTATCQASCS
dipeptidylaminopeptidase IV (DPP-IV), sequence (P27487 whole entry, species assumed): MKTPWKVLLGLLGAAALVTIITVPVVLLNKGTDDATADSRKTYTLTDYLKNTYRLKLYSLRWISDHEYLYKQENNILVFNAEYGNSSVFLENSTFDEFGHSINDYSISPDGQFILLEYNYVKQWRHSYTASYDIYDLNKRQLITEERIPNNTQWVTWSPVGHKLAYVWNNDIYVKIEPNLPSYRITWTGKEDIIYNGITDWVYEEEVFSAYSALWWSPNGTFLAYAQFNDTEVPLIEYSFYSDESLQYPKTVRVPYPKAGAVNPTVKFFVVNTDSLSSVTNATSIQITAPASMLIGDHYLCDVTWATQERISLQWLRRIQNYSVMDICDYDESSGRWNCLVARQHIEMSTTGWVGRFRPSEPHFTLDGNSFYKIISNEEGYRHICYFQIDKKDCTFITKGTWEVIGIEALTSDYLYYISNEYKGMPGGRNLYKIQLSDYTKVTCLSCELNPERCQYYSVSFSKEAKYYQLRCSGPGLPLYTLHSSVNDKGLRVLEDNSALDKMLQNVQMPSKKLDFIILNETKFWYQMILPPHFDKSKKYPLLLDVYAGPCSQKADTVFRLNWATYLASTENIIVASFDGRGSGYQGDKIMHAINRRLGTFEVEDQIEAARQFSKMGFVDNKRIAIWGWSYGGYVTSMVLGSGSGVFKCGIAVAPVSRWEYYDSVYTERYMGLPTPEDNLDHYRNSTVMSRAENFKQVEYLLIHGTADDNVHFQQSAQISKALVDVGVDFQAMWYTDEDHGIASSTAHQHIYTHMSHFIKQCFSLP

For `O=S(=O)(NCCNC/C=C/c1ccc(Br)cc1)c1cccc2cnccc12` [H-89], the “effect on the differentiation actions of GLP-1” value [1] is given as “only modest effects”.
In the case of `COc1cccc(-c2cc(=O)c3ccccc3o2)c1N` [PD98059], the “effect on the differentiation actions of GLP-1” value [1] is listed as “abrogated”.
For `Nc1ncnc2c1ncn2[C@@H]1O[C@@H]2COP(O)(=S)O[C@H]2[C@H]1O` (some centres unmarked) [Rp-cAMP, reference compound], the “effect on the anti-apoptotic effects of GLP-1” value (Min6 mouse islet cells) is given as “partially blocked”.
For `CN1[C@@H]2CC[C@H]1C[C@@H](OC(=O)C(CO)c1ccccc1)C2` (some centres unmarked) [atropine], the “effect on the stimulatory effect of GLP-1 on blood pressure” value (rats [2]; normal rats) is given as “prevented”.
In the case of `CNC1(C)C2CCC(C2)C1(C)C` (centres unmarked) [mecamylamine], the “effect on the GLP-1-dependent increase in heart rate” value (rats [2]; normal rats) is given as “blocked” and the “effect on the stimulatory effect of GLP-1 on blood pressure” value (rats [2]; normal rats) is given as “prevented”.
In the case of “GLP-1 (9-36)amide (EGTFTSDVSSYLEGQAAKEFIAWLVKGR-NH2; UniProt P01275 100-127, looked up, fragment) [GLP-1 (9-36) amide, truncated fragment, primary metabolite of GLP-1 produced by DPP-IV]”, the “effect on the action of GLP-1 7-36 amide” value (cloned GLP-1 receptor) is given as “antagonized”.
For Glucagon-like peptide-1 [GLP-1], the cephalic-induced antral motility (pigs) is given as “strongly inhibited”, the “Gene or Protein activated by GLP-1” value (INS-1 cells; Akt and IRS proteins) is given as “Akt and IRS proteins” and the “Gene or Protein activated by GLP-1” value (INS-1 cells; Calcineurin and NFAT) is given as “Calcineurin and NFAT”. For the same compound, the “Gene or Protein activated by GLP-1” value (INS-1 cells; Glucokinase) was “Glucokinase”, the “Gene or Protein activated by GLP-1” value (INS-1 cells; Immediate early genes) was “Immediate early genes” and the “Gene or Protein activated by GLP-1” value (INS-1 cells; Kir 6.2 RNA) was “Kir 6.2 RNA”. The “Gene or Protein activated by GLP-1” value (RIN1046-38 cells; GLUT-1 RNA) was “GLUT-1 RNA”, the “Gene or Protein activated by GLP-1” value (RIN1046-38 cells; Hexokinase I RNA) was “Hexokinase I RNA” and the “Gene or Protein activated by GLP-1” value (RIN1046-38 cells; SNAP-25 phosphorylation) was “SNAP-25 phosphorylation”. For the same compound, the “Gene or Protein activated by GLP-1” value (Multiple cell models) was “Insulin RNA”, the “Gene or Protein activated by GLP-1” value [3] was “Pdx-1 RNA and protein” and the cell death (human islets) was “decreased”. For the same compound, the glucose-stimulated insulin secretion (human islets) was “improved”, the “islet size and β cell mass” value (Zucker diabetic rats) was “increased” and the “percentage of apoptotic β cells” value (Zucker diabetic rats) was “significantly reduced”. The cell survival [4] was “increased”, the “extent of hydrogen peroxide-induced apoptosis” value (Min6 mouse islet cells; in vitro) was “reduced” and the “protection against glutamate-induced apoptosis” value [5] was “completely protect”. The “extent of glutamate-induced cell death” value [5] was “significantly reduced”, the calpain activity (calpain) was “decreased” and the “differentiation to an endocrine phenotype” value (AR42J cell line) was “promotes”. For the same compound, the glucose-dependent insulin secretion (fetal pig islet clusters) was “promoted”, the “insulin expression in subsets of cells” value (human NIP cells) was “induced” and the islet labeling index (lean mice) was “increased”. The β cell mass (young and old rats) was “increased”, the “pancreatic insulin content and total beta-cell mass” value (neonatal GK rat) was “enhanced” and the food intake (rats [6]) was “dose-dependently inhibits”. For the same compound, the “blood pressure and heart rate” value (rats [2]) was “dose-dependently increased”, the fecal output (rats [7]; ICV) was “increase” and the “peak plasma level of GLP-1” value (continuous 5 day subcutaneous infusion) was 88.7 pM. The “peak plasma level of GLP-1” value (subcutaneous injection 30 minutes before meals) was 269.4 pM, the “pentagastrin-stimulated gastric acid secretion” value (human subjects [8]) was “inhibited” and the gastric emptying [9] was “inhibits”. The LVEF [10, 17] was 39+2%, the “global wall motion score indexes” value [10, 17] was 1.63 ± 0.09 and the “regional wall motion score indexes” value [10, 17] was 2.02 ± 0.11. The LVEF [10, 18] was 29+2%, the “global wall motion score indexes” value [10, 18] was 1.94 ± 0.11 and the “regional wall motion score indexes” value [10, 18] was 2.53 ± 0.08. For the same compound, the “plasma glucose and free fatty acids” value ([10]; human, in vivo) was “significant decrease”, the contraction amplitude (rat cardiac myocytes) was “decrease” and the “intracellular cAMP” value (rat cardiac myocytes) was “increased”. The development of hypertension (salt-sensitive rats) was “reduced”, the “Rd (glucose disposal)” value (human volunteers) was “no significant change” and the “decrease in Ra (endogenous glucose production)” value (human volunteers) was 17%. For the same compound, the plasma glucose (human volunteers) was “decreased”, the glycogen synthesis (muscle strips) was “stimulated” and the “glucose incorporation into glycogen” value (cultured myotubes) was “stimulated”.
In the case of Val8-GLP-1(7-37)OH, the DPP-IV degradation [11] is listed as “resistant” and the optimum plasma levels [12] is listed as 30-200 picomoles/liter.
For “[Ser8]GLP-1 (HSEGTFTSDVSSYLEGQAAKEFIAWLVKGRG; also: radiolabel, position not given here; UniProt P01275 98-128, looked up, variant A8S)”, the “uptake into the CNS” value (CNS) is listed as “not saturable”.
For [Ser(2)]exendin(1-9), the “kainate-induced apoptosis of hippocampal neurons” value (hippocampal neurons) is listed as “prevents”.
For astressin, the “effect on GLP-1-induced fecal output” value (rats [7]) is given as “blocked”.
For exendin (9-39), the food intake (rats [6]) is given as “increased”, the “effect on GLP-1-induced fecal output” value (rats [7]) is given as “blocked” and the “effect on the insulinotropic and glucagonostatic effects of exogenous GLP-1” value (human subjects [13]) is given as “blocked”.
For exendin-4, the “numbers of Tunel+ apoptotic β cells” value (db/db mice [14]) is listed as “reduced”, the “progression to more frank diabetes” value (db/db mice [14]) is listed as “prevented” and the β cell mass (db/db mice [14]) is listed as “increased”. For the same compound, the “β cell apoptosis induced by streptozotocin (STZ)” value (mice) was “reduced”, the “extent of apoptotic cell death” value (purified rat b cells) was “directly reduced” and the cell survival [4] was “increased”. The “protection against glutamate-induced apoptosis” value [5] was “completely protect”, the “extent of glutamate-induced cell death” value [5] was “significantly reduced” and the “differentiation to an endocrine phenotype” value (AR42J cell line) was “promotes”. For the same compound, the “number of cells exhibiting immunopositivity for insulin or glucagon” value (Capan-1) was “significant increase”, the “insulin expression in subsets of cells” value (human NIP cells) was “induced” and the Pdx-1 expression [15] was “enhance”. For the same compound, the insulin expression [15] was “not”, the “glucose intolerance following partial pancreatectomy” value (rat pancreatectomy model) was “attenuates” and the “islet neogenesis and β cell proliferation” value (rat pancreatectomy model) was “increases”. For the same compound, the β cell proliferation (db/db mice [16]) was “increased”, the β cell proliferation (ob/ob mice) was “not” and the “pancreatic insulin content and total beta-cell mass” value (neonatal GK rat) was “enhanced”. The “crossing of the blood brain barrier” value (blood brain barrier) was “readily crosses” and the “blood pressure and heart rate” value (rats [2]) was “dose-dependently increased”.
